From ChEMBL document CHEMBL1201862, “PubChem BioAssay data set” (2004) come the findings set out here.

What all share (assay): inhibition of tumour cell growth, NCI panel, 48 h
Assay [1] relates to EKVX.
Assay [2] deals with RXF 393.
Assay [3] concerns SK-MEL-28.
The subject of assay [4] is OVCAR-5.
Assay [5] relates to SNB-19.
Assay [6] has as its system HT-29.
Assay [7] deals with UACC-257.
Assay [8] concerns A498.
Assay [9] concerns NCI-H522.
The test system of assay [10] is Hs-578T.
The test system of assay [11] is MOLT-4.
The test system of assay [12] is IGROV-1.
Assay [13] has as its system UACC-62.
Assay [14] concerns CCRF-CEM.
Assay [15] deals with NCI-H23.
Assay [16] concerns COLO 205.
The test system of assay [17] is OVCAR-3.
Assay [18] concerns T47D.
Assay [19] has as its system Malme-3M.
For assay [20], the system named is RPMI-8226.

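A five-concentration, 48-hour dose response in 96-well plates underlies each endpoint, interpolated linearly between surrounding concentrations. Here, GI50 denotes the concentration required for 50% inhibition of growth.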 Activity calls are given as the source filed them. Cut-off read from the data, not from the text of the source: active = GI50 up to about 1.1 µM and inactive = higher.

On to `COc1cc(NP(=O)(Oc2ccccc2)Oc2ccccc2)ccc1Nc1c2ccccc2nc2c1[nH]c1ccccc12`, for which the GI50 was 9.71 µM (inactive) in [1]; 2.46 µM (inactive) in [2]; 16.2 µM (inactive) in assay [3]; 10.5 µM (inactive) in [4]; 0.755 µM (active) in assay [5]; 0.953 µM (active) in assay [6]. In addition, the GI50 in [7] was 7.71 µM (inactive); in assay [8], 0.269 µM (active); in assay [9] it was 1.6 µM (inactive); in assay [10], 17.1 µM (inactive); in assay [11] it was 0.0147 µM (active); in assay [12], 0.0923 µM (active). Moreover, the GI50 in assay [13] was 2.4 µM (inactive); in assay [14], 0.183 µM (active); in assay [15], 0.585 µM (active); in [16] it was 2.81 µM (inactive); in assay [17], 2.08 µM (inactive); in [18], 0.867 µM (active). Also, in assay [19], the GI50 is 4.46 µM (inactive).

Consider `COC1/C=C/O[C@@]2(C)Oc3c(C)c(O)c4c(O)c(cc(O)c4c3C2=O)NC(=O)/C(C)=C\C=C\[C@H](C)C(O)[C@@H](C)[C@@H](O)[C@@H](C)[C@H](OC(C)=O)[C@@H]1C` (some centres undefined), for which the GI50 in assay [2] is 11.2 µM (inactive); in [3], 22.5 µM (inactive); in assay [4] it was 38.5 µM (inactive); in assay [5], 82.2 µM (inactive); in assay [6], 14.9 µM (inactive); in [7], 13 µM (inactive). Besides, the GI50 in assay [8] was 38.2 µM (inactive); in [9], 5.3 µM (inactive); in [10] it was 33 µM (inactive); in [11], 6.31 µM (inactive); in assay [12], 22.7 µM (inactive); in assay [13], 18.1 µM (inactive). For the same compound, the GI50 in assay [14] was 2.06 µM (inactive); in [15], 13.5 µM (inactive); in assay [16], 2.65 µM (inactive); in assay [18], 17.7 µM (inactive); in assay [19] it was 30.6 µM (inactive).

For `O=C(N/N=C/c1ccc(O)cc1)NNCCO`, the GI50 in assay [3], in [4], in [5], in [6], in assay [7] and in assay [8] was > 100 µM (inactive) each time. For the same compound, the GI50 in assay [9], in assay [10], in assay [11], in assay [12], in [13] and in assay [14] was > 100 µM (inactive) each time. For the same compound, the GI50 in assay [15], in [16], in assay [17], in assay [18] and in [19] was > 100 µM (inactive) each time.

`O=C1/C(=C/c2ccccc2)CN(C(=O)OCc2ccccc2)C/C1=C\c1ccccc1`: the GI50 in [1] is 20.7 µM (inactive); in assay [2], 13.4 µM (inactive); in assay [3], 11.5 µM (inactive); in assay [4], 17.4 µM (inactive); in [5], 26.6 µM (inactive); in assay [6] it was 7.69 µM (inactive). The GI50 in [7] was 16 µM (inactive); in assay [8] it was 27.4 µM (inactive); in assay [9] it was 6.76 µM (inactive); in [10], 2.47 µM (inactive); in assay [11], 2.76 µM (inactive); in assay [12], 14.1 µM (inactive). The GI50 in assay [13] was 12.2 µM (inactive); in assay [14], 2.08 µM (inactive); in assay [15], 15.6 µM (inactive); in assay [16], 16.1 µM (inactive); in [17] it was 1.68 µM (inactive); in assay [18] it was 41.4 µM (inactive). In addition, the GI50 in [19] was 30.4 µM (inactive).

On to `O=C(c1ccccc1)c1c(-c2ccccc2)n(-c2ccccc2)[nH]c(=O)c1=O`, for which the GI50 in assay [20] is 27.5 µM (inactive); in [1] it was 55.5 µM (inactive); in [3] it was > 100 µM (inactive); in [4] it was > 100 µM (inactive); in [5], 88.3 µM (inactive); in assay [6], > 100 µM (inactive). The GI50 in assay [7] was 70.1 µM (inactive); in assay [8] it was > 100 µM (inactive); in assay [9], 0.361 µM (active); in assay [10] it was 21.6 µM (inactive); in [11] it was 28.2 µM (inactive); in assay [12] it was 54.5 µM (inactive). For the same compound, the GI50 in assay [13] is 12.3 µM (inactive); in assay [14], 15.5 µM (inactive); in [15], 75 µM (inactive); in [16], 75.2 µM (inactive); in assay [17], 37.2 µM (inactive); in [18], > 100 µM (inactive). Further, the GI50 in assay [19] is 22.5 µM (inactive).

On to `COC(=O)C1=NN2c3ccccc3CN([C@@H](C)c3ccccc3)C(=O)[C@H]2[C@@H]1C`, for which the GI50 in [1] was 27.7 µM (inactive); in [2] it was 40.3 µM (inactive); in assay [3] it was 49.2 µM (inactive); in assay [4], 37.6 µM (inactive); in assay [5] it was 74.6 µM (inactive); in assay [6], 31.8 µM (inactive). In addition, the GI50 in assay [7] was 26.9 µM (inactive); in [8] it was > 100 µM (inactive); in assay [9], 21.1 µM (inactive); in [10], 67.1 µM (inactive); in [11], 17.3 µM (inactive); in [13] it was 40.6 µM (inactive). Besides, the GI50 was 0.743 µM (active) in [14]; 33.1 µM (inactive) in assay [15]; 18.1 µM (inactive) in assay [16]; 27 µM (inactive) in assay [17]; 17 µM (inactive) in assay [18]; 38.4 µM (inactive) in assay [19].

In the case of `CCOC(=O)c1c(SC(=O)c2cc(OC)c(OC)c(OC)c2)n(-c2ccccc2)c(=S)n(-c2ccccc2)c1=O`, the GI50 in assay [1], in [2], in assay [3], in [4], in [5] and in assay [6] was > 100 µM (inactive) throughout. Moreover, the GI50 in assay [7], in assay [8], in assay [9], in assay [10], in assay [11] and in assay [12] was > 100 µM (inactive) each time. For the same compound, the GI50 in assay [13], in [14], in assay [15], in assay [16], in [17] and in assay [18] was > 100 µM (inactive) in each case. The GI50 in assay [19] was 51.8 µM (inactive).

Regarding `Cn1/c(=N\N=C2\C=C3CCCCC3(C)CC2)sc2ccccc21` (centres undefined), the GI50 in assay [1], in [2], in assay [3], in assay [4], in [5] and in assay [6] was > 100 µM (inactive) each time. For the same compound, the GI50 in assay [7], in assay [8], in assay [9], in assay [10], in assay [12] and in assay [13] was > 100 µM (inactive) in each case. Moreover, the GI50 is 55.2 µM (inactive) in assay [14]; > 100 µM (inactive) in assay [15]; > 100 µM (inactive) in [16]; > 100 µM (inactive) in [17]; > 100 µM (inactive) in assay [18]; > 100 µM (inactive) in assay [19].

As for `N#Cc1ccc(Oc2nc3ccc(C(F)(F)F)cc3nc2-c2ccccc2)cc1`, the GI50 in assay [1] is 14.3 µM (inactive); in assay [2], 26.4 µM (inactive); in assay [3], 16.6 µM (inactive); in assay [4], 13.4 µM (inactive); in assay [5] it was 21.8 µM (inactive); in [6] it was 16.7 µM (inactive). Also, the GI50 in assay [7] is 21.8 µM (inactive); in assay [8] it was 15.7 µM (inactive); in assay [9], 15.6 µM (inactive); in assay [10], 20.6 µM (inactive); in assay [11], 20 µM (inactive); in [12], 18.8 µM (inactive). In addition, the GI50 in assay [13] was 32.6 µM (inactive); in assay [14] it was 20.4 µM (inactive); in assay [15] it was 16.5 µM (inactive); in assay [16] it was 21.5 µM (inactive); in assay [17] it was 21.8 µM (inactive); in assay [18] it was 16.7 µM (inactive). In addition, the GI50 in assay [19] is 17.8 µM (inactive).

Take `CC(=O)O[C@H]1CC[C@@]2(C)C(=CC[C@@H]3[C@@H]2CC[C@]2(C)c4c(C)n[nH]c4C[C@@H]32)C1`: the GI50 is 17.9 µM (inactive) in assay [1]; 11.4 µM (inactive) in [2]; 20.7 µM (inactive) in assay [3]; 14.9 µM (inactive) in assay [4]; 19.5 µM (inactive) in [5]; 10.3 µM (inactive) in assay [6]. Besides, the GI50 in assay [7] was 16.7 µM (inactive); in assay [8], 20.3 µM (inactive); in assay [9], 6.92 µM (inactive); in assay [10], 17.6 µM (inactive); in assay [11], 11.7 µM (inactive); in assay [12], 20.8 µM (inactive). Besides, the GI50 in assay [13] is 12 µM (inactive); in [14] it was 4.97 µM (inactive); in assay [15], 14.1 µM (inactive); in assay [16] it was 14.7 µM (inactive); in assay [17], 12.2 µM (inactive); in assay [18] it was 9.53 µM (inactive). In assay [19], the GI50 is 3.75 µM (inactive).
